{"source": "patent US20080138404A1", "about": "“EXTENDED RELEASE FORMULATIONS OF CARVEDILOL” (BIOVAIL LABORATORIES INTERNATIONAL S.R.L., priority 2006, published 2008)", "origin": "cited, not measured here", "key": {"[1]": {"test_system": "plasma protein, primarily albumin", "conditions": "following oral administration in healthy subjects"}, "[2]": {"conditions": "man"}, "[3]": {"assay": "not given", "remark": "listed apart in the source"}}, "data": [{"smiles": "COc1ccccc1OCCNCC(O)COc1cccc2[nH]c3ccccc3c12", "note": "(racemic) [Carvedilol]", "values": [{"measurement": "immediate release dose recovered as unchanged drug in urine", "setting": "in vivo", "result": "less than 2%"}, {"measurement": "terminal (elimination) half-life", "setting": "oral, immediate release", "result": "7 to 10", "unit": "h"}, {"measurement": "bound to plasma protein", "setting": "[1]", "result": "more than 98%"}, {"measurement": "colonic absorption relative to oral administration", "setting": "[2]; 25 mg carvedilol gelatin suspension", "result": "about 7%"}, {"measurement": "relative absorption in the ileum in comparison with oral administration", "setting": "[2]", "result": 28, "unit": "%"}, {"measurement": "relative absorption in the jejunum in comparison with oral administration", "setting": "[2]", "result": 56, "unit": "%"}, {"measurement": "solubility", "setting": "[3]; above a pH of 9.0", "result": "< 1", "unit": "µg/mL"}, {"measurement": "saturation solubility", "setting": "[3]; pH 7, room temperature", "result": "about 23 μg/ml"}]}, {"smiles": "COc1ccccc1OCCNC[C@@H](O)COc1cccc2[nH]c3ccccc3c12", "note": "[R(+) Carvedilol]", "values": [{"measurement": "higher plasma concentration in poor metabolisers compared to extensive metabolisers", "setting": "in vivo", "result": "2-3 fold"}, {"measurement": "plasma levels of R(+) relative to S(−)", "setting": "in vivo, po", "result": "2-3 times"}]}, {"smiles": "COc1ccccc1OCCNC[C@H](O)COc1cccc2[nH]c3ccccc3c12", "note": "[S(−) Carvedilol]", "values": [{"measurement": "increase of plasma levels in poor metabolisers", "setting": "in vivo", "result": "20-25%"}]}]}
